Reference: US5610159A, “N-oxides of morpholine derivatives and their use as therapeutic agents” (Merck Sharp & Dohme Limited, priority 1995, dated 1997)

Assay: stability of crystals on storage
Assay type: physicochemical
Experimental: Dimethylamine (approximately 10 ml) was condensed at -80° C. in a pressure tube and to this was added a solution of N-(4-azidobut-2-ynyl)-2-(R)-(1-(R)-(3,5-bis(trifluoromethyl)phenyl)ethoxy)-3-(S)-(4-fluorophenyl)morpholine (3.2 g) in dioxan (15 ml). The tube was sealed and the solution was heated at 90° C. for 16 h. The solution was evaporated to dryness and the residue chromatographed on silica gel (eluting with 5% methanol in dichloromethane containing 0.25% ammonia (SG. 0.88)) and the fractions containing the desired product were evaporated in vacuo to give the title compound. To a solution of this residue in diethyl ether was added 1M-HCl in methanol. The solution was evaporated to dryness and redissolved in diethyl ether to give crystals of the title compound hydrochloride salt m.p. 194°-198° C., [α]^22D+65.0° (c=0.5, H2 O).

stability of crystals (at 40° C.): stable for at least five days
stability of crystals (at 40° C./75% relative humidity): stable for at least five days
stability of crystals (at 80° C.): stable for at least five days
stability of crystals (at 2000LUX): stable for at least five days
SMILES: C[C@@H](O[C@H]1OCCN(Cc2nn[nH]c2CN(C)C)[C@H]1c1ccc(F)cc1)c1cc(C(F)(F)F)cc(C(F)(F)F)c1 [Description 9]
